# Experimental data from patent US6663881B2 (priority 1993, dated 2003).
# Read-outs that look alike come from different tables or passages of the source.
# Tests used:
# [1] = system: Vascular smooth muscle (BO54) cells; format: cell-based, baboon
# [2] = system: swine coronary arteries traumatized by embolectomy or over-sized PTCA balloon; experiment: Swine coronary artery study, MIC catheter infusion, morphometry at 4 weeks (Table 15); format: in vivo; conditions: 8.0 μg/ml
# Experimental: Swine coronary arteries were also traumatized by embolectomy or over-sized PTCA balloon, and then 8-16 ml of cytochalasin B at 8.0 μg/ml was infused into the arterial wall with a MIC catheter to achieve a therapeutic dose. Controls included a diluent control and a traumatized untreated control, and all animals were sacrificed 4 weeks after intervention and coronary arteries were fixed by perfusion. Morphometry was performed on selected sections from proximal, treated and distal segments of coronary arteries (Table 15).
# [3] = system: balloon traumatized rabbit carotid artery; format: in vivo
# [4] = system: Vascular smooth muscle cells
structure (smiles),measurement,setting,value
C=C1[C@@H](C)[C@H]2[C@H](Cc3ccccc3)NC(=O)[C@]23OC(=O)/C=C/[C@H](O)CCC[C@@H](C)C/C=C/[C@H]3[C@@H]1O [cytochalasin B],"MED, DNA assay",[1]; 5 minute exposure,10 µg/mL
same,DNA synthesis inhibition compared with protein synthesis inhibition,"[1]; 24 hour assays, 5% FBS, FIGS. 10A-10D",to a greater extent than they inhibited protein synthesis
same,"MED, DNA synthesis assay",[1]; 24 hour exposure,0.1 µg/mL
same,arterial remodeling (area bounded by the external elastic lamina),[2],trend toward beneficial arterial remodeling
same,luminal area,[2],did not result in a statistically significant increase in luminal area
same,intimal proliferation,"[3]; Group 1, 2 weeks",minimal intimal and adventital proliferation
same,intimal proliferation,"[3]; Group 1, three weeks",no intimal proliferation
same,intimal proliferation,"[3]; Group 1: 20 mg in 1 g bovine collagen gel in collagen mesh wrap, 1 week",no intimal or adventital proliferation
same,intimal proliferation,"[3]; Group 2, 3 weeks","moderate, irregular intimal proliferation"
same,intimal proliferation,"[3]; Group 2, two weeks",complete inhibition of intimal proliferation
same,intimal proliferation,"[3]; Group 3, three weeks",moderate amount of intimal hyperplasia
same,intimal proliferation,"[3]; Group 3, two weeks","mild, irregular intimal proliferation"
same,intimal proliferation,"[3]; Group 3: 8 mg in 100 mg pluronic gel on collagen mesh wrap, one week",mild intimal proliferation
same,intimal proliferation,"[3]; Group 4, three weeks",minimal to no intimal proliferation
same,intimal proliferation,"[3]; Group 4, two weeks",minimal intimal proliferation
same,intimal proliferation,"[3]; Group 7a, three weeks",mild irregular intimal proliferation
same,intimal proliferation,"[3]; Group 7a: 10% wt/wt, one week",no intimal proliferation
same,re-endothelization,"[3]; Group 8a, animal 1254",approximately 60%
same,intimal proliferation,"[3]; Group 8a, animal 1255",mild to moderate intimal proliferation
same,intimal proliferation,"[3]; Group 8a, animal 1256",moderate intimal proliferation
same,intimal proliferation,"[3]; Group 8a: 10% wrap 2 weeks, removed, 2 weeks later, animal 1254",none to mild
same,intimal proliferation,"[3]; Group 10 (1% wrap, 2 weeks after removal), animal 1304",moderate initmal proliferation
same,re-endothelization,"[3]; Group 10, animal 1304",100%
same,intimal proliferation,"[3]; Group 11 (1% wrap, four weeks after removal), animal 1307",moderate initmal proliferation
same,intimal proliferation,"[3]; Group 11, animal 1308",moderate intimal proliferation
same,re-endothelization,"[3]; Group 11, animal 1308",100%
same,intimal proliferation,"[3]; Group 11, animal 1309",marked intimal proliferation
same,qualitative difference between test and control animals,"[3]; Groups 10 and 11: 1% wt/wt silicone wrap 2 weeks, removed, evaluated 2 or 4 weeks later",No significant difference
same,Morphological cytotoxicity grade,"[4]; 0.01 μg, 24 hrs + 24 hrs",0
same,Morphological cytotoxicity grade,"[4]; 0.01 μg, 24 hrs + 48 hrs",0
same,Morphological cytotoxicity grade,"[4]; 0.01 μg, 24 hrs + 72 hrs",0
same,Morphological cytotoxicity grade,"[4]; 0.01 μg, 24 hrs + 96 hrs",0
same,Morphological cytotoxicity grade,"[4]; 0.01 μg, 24 hrs + 120 hrs",0
same,Morphological cytotoxicity grade,"[4]; 0.01 μg, Continuous 6 hrs",0
same,Morphological cytotoxicity grade,"[4]; 0.01 μg, Continuous 24 hrs (first listing)",0
same,Morphological cytotoxicity grade,"[4]; 0.01 μg, Continuous 24 hrs (second listing)",0
same,Morphological cytotoxicity grade,"[4]; 0.01 μg, Continuous 48 hrs",0
same,Morphological cytotoxicity grade,"[4]; 0.01 μg, Continuous 72 hrs",0
same,Morphological cytotoxicity grade,"[4]; 0.01 μg, Continuous 96 hrs",0
same,Morphological cytotoxicity grade,"[4]; 0.01 μg, Continuous 120 hrs",0
same,Morphological cytotoxicity grade,"[4]; 0.01 μg, Continuous 168 hrs",0
same,Morphological cytotoxicity grade,"[4]; 0.01 μg, Continuous 216 hrs",0
same,Morphological cytotoxicity grade,"[4]; 0.01 μg, Continuous 264 hrs",0
same,Morphological cytotoxicity grade,"[4]; 0.1 μg, 5 min + 2 hrs",0
same,Morphological cytotoxicity grade,"[4]; 0.1 μg, 5 min + 24 hrs",0
same,Morphological cytotoxicity grade,"[4]; 0.1 μg, 5 min + 48 hrs",0
same,Morphological cytotoxicity grade,"[4]; 0.1 μg, 5 min + 72 hrs",0
same,Morphological cytotoxicity grade,"[4]; 0.1 μg, 5 min + 96 hrs",0
same,Morphological cytotoxicity grade,"[4]; 0.1 μg, 5 min + 120 hrs",0
same,Morphological cytotoxicity grade,"[4]; 0.1 μg, 24 hrs + 24 hrs",0.5
same,Morphological cytotoxicity grade,"[4]; 0.1 μg, 24 hrs + 48 hrs",1
same,Morphological cytotoxicity grade,"[4]; 0.1 μg, 24 hrs + 72 hrs",0.5
same,Morphological cytotoxicity grade,"[4]; 0.1 μg, 24 hrs + 96 hrs",0
same,Morphological cytotoxicity grade,"[4]; 0.1 μg, 24 hrs + 120 hrs",0
same,Morphological cytotoxicity grade,"[4]; 0.1 μg, Continuous 6 hrs",0
same,Morphological cytotoxicity grade,"[4]; 0.1 μg, Continuous 24 hrs (first listing)",1
same,Morphological cytotoxicity grade,"[4]; 0.1 μg, Continuous 24 hrs (second listing)",0
same,Morphological cytotoxicity grade,"[4]; 0.1 μg, Continuous 48 hrs",1
same,Morphological cytotoxicity grade,"[4]; 0.1 μg, Continuous 72 hrs",1
same,Morphological cytotoxicity grade,"[4]; 0.1 μg, Continuous 120 hrs",1
same,Morphological cytotoxicity grade,"[4]; 0.1 μg, Continuous 168 hrs",1
same,Morphological cytotoxicity grade,"[4]; 0.1 μg, Continuous 216 hrs",1
same,Morphological cytotoxicity grade,"[4]; 0.1 μg, Continuous 264 hrs",1
same,Morphological cytotoxicity grade,"[4]; 1 μg, 5 min + 2 hrs",0
same,Morphological cytotoxicity grade,"[4]; 1 μg, 5 min + 48 hrs",1
same,Morphological cytotoxicity grade,"[4]; 1 μg, 5 min + 72 hrs",1
same,Morphological cytotoxicity grade,"[4]; 1 μg, 5 min + 96 hrs",1
same,Morphological cytotoxicity grade,"[4]; 1 μg, 5 min + 120 hrs",1
same,Morphological cytotoxicity grade,"[4]; 1 μg, 24 hrs + 24 hrs",3
same,Morphological cytotoxicity grade,"[4]; 1 μg, 24 hrs + 48 hrs",4
same,Morphological cytotoxicity grade,"[4]; 1 μg, 24 hrs + 72 hrs",4
same,Morphological cytotoxicity grade,"[4]; 1 μg, 24 hrs + 96 hrs",4
same,Morphological cytotoxicity grade,"[4]; 1 μg, 24 hrs + 120 hrs",4
same,Morphological cytotoxicity grade,"[4]; 1 μg, Continuous 24 hrs (first listing)",3
same,Morphological cytotoxicity grade,"[4]; 1 μg, Continuous 24 hrs (second listing)",3
same,Morphological cytotoxicity grade,"[4]; 1 μg, Continuous 48 hrs",3
same,Morphological cytotoxicity grade,"[4]; 1 μg, Continuous 72 hrs",3
same,Morphological cytotoxicity grade,"[4]; 1 μg, Continuous 96 hrs",3
same,Morphological cytotoxicity grade,"[4]; 1 μg, Continuous 120 hrs",3
same,Morphological cytotoxicity grade,"[4]; 1 μg, Continuous 168 hrs",4
same,Morphological cytotoxicity grade,"[4]; 1 μg, Continuous 216 hrs",4
same,Morphological cytotoxicity grade,"[4]; 1 μg, Continuous 264 hrs",4
same,cytotoxicity grade at in vitro effective dosage,"[4]; 1 μg/ml, anti-migration/contraction effective dose",1
same,Morphological cytotoxicity grade,"[4]; 10 μg, 5 min + 2 hrs",0.5
same,Morphological cytotoxicity grade,"[4]; 10 μg, 5 min + 24 hrs",4
same,Morphological cytotoxicity grade,"[4]; 10 μg, 5 min + 48 hrs",4
same,Morphological cytotoxicity grade,"[4]; 10 μg, 5 min + 120 hrs",5
